From US20210161877A1, “GASTROPROTECTED, HYDROPHOBIC FORMULATION OF AT LEAST ONE ACTIVE PRINCIPLE AND METHOD FOR OBTAINING SAME” (priority 2018, published 2021) come the findings set out here.

Each structure is given as a SMILES string.

The nature of data set [1]: Stability of the particles in 0.1 N hydrochloric acid solution, HPLC assay. The conditions noted are these: 0.1 N HCl medium at 25° C., 500 ml, 20 mg of BZ, 120 minutes of incubation; percentage of the initial dose. In kind it is physicochemical. As to the method:
Measurement of the stability of the particles in 0.1 N hydrochloric acid solution, via an HPLC assay method: • Column (ProntoSlL, Bischoff, Germany): C18, 5 μm, 120 Å, 4.6×150 mm, • Mobile phase: methanol, 65%/10 mM Na2HPO4, 35%, • Flow rate: 1.00 mL/min, • Temperature: 20° C. (thermostat), • Detection: UV (λ=310 nm) • Injection volume: 20 μL.
The stability is measured in 0.1 N HCl medium at 25° C., for a volume of 500 ml and 20 mg of BZ. The results collated in FIG. 2 are expressed as a percentage of the initial dose.

Data set [2] can be described thus: Test of gastroprotection and preliminary bioavailability on animals (oral administration). The note with it: rat, in vivo, fasted male Sprague-Dawley rats, 40 mg/kg of BZ. As to the method:
Test of gastroprotection and preliminary bioavailability on animals. In this test, the protective capacity of the BZ-AT formulation according to the invention as described in this example and of an unprotected form of BZ are compared.
Each formulation is administered orally to male Sprague-Dawley rats weighing between 175-250 g. Tests are performed with pure BZ and the BZ-AT form taken up at 10 mg/ml in the following aqueous solution:
The volume that may be administered is adjusted as a function of each animal to enable a dose of 4 mL/kg to be achieved, i.e. 40 mg/kg of BZ. The administration is performed orally on the fasted animal.

For the compound `COCCCOc1ccnc(C[S+]([O-])c2nc3ccccc3[nH]2)c1C` (stereo not shown) [BZ, 2-([4-(3-methoxypropoxy)-3-methylpyridin-2-yl]methylsulfinyl)-1H-benzo[d]imidazole], the degradation in data set [1] amounted to 100%. Further, in data set [2], the AUC is less than 5 ng·h/mL, the Cmax was found to be 2.54 ng/mL and the Tmax was 48 min.

As a reminder, the AUC is concentration integrated over time. As usually defined, the Cmax is the highest concentration seen after dosing. As usually defined, the Tmax is the time from dosing to the highest level.
